According to the supplement of paper PMC11061612:

Assays:
[1] = test system: 639-V (Bladder Carcinoma); experiment: Bliss excess, mean over the matrix (fraction); higher = more synergy
Method in brief: (§1)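 After 24 hours at 37°C and 5% CO2 in 1536-well plates, cells in DMEM/F12 or RPMI plus 10% FBS received two-drug dose matrices for 72 hours. Viability came from CellTiter-Glo 2.0 luminescence and was scaled as inhibition, anchored at 0 by vehicle wells and at 1 by blank wells. Combination Emax is taken as the second-highest inhibition in the matrix, and Bliss excess as the observed combination effect less EA + EB − EA·EB, with EA and EB the single-agent effects.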

[2] = test system: CAL-51 (Breast Carcinoma); experiment: as above
Method in brief: as §1

COLO-829 (Melanoma) [3] = experiment: as above
Method in brief: as §1

[4] = test system: HCC-15 (Squamous Cell Lung Carcinoma); experiment: as above
Method in brief: as §1

[5] = test system: KARPAS-231 (B-Cell Non-Hodgkin's Lymphoma); experiment: as above
Method in brief: as §1

[6] = test system: KYSE-410 (Esophageal Squamous Cell Carcinoma); experiment: as above
Method in brief: as §1

[7] = test system: LB771-HNC (Head and Neck Carcinoma); experiment: as above
Method in brief: as §1

[8] = test system: MHH-PREB-1 (B-Cell Non-Hodgkin's Lymphoma); experiment: as above
Method in brief: as §1

[9] = test system: NCI-H747 (Colorectal Carcinoma); experiment: as above
Method in brief: as §1

[10] = test system: OVCAR-8 (Ovarian Carcinoma); experiment: as above
Method in brief: as §1

[11] = test system: SW626 (Colorectal Carcinoma); experiment: as above
Method in brief: as §1

[12] = test system: TE-4 (Esophageal Squamous Cell Carcinoma); experiment: as above
Method in brief: as §1

[13] = test system: UMC-11 (Other Solid Carcinomas); experiment: as above
Method in brief: as §1

[14] = test system: 639-V (Bladder Carcinoma); experiment: combination Emax (second highest fraction inhibited in the dose matrix, 72 h); higher = more inhibition; extreme values may be limits of the assay
Method in brief: as §1

[15] = test system: CAL-51 (Breast Carcinoma); experiment: as above
Method in brief: as §1

COLO-829 (Melanoma) [16] = experiment: as above
Method in brief: as §1

[17] = test system: HCC-15 (Squamous Cell Lung Carcinoma); experiment: as above
Method in brief: as §1

[18] = test system: KARPAS-231 (B-Cell Non-Hodgkin's Lymphoma); experiment: as above
Method in brief: as §1

[19] = test system: KYSE-410 (Esophageal Squamous Cell Carcinoma); experiment: as above
Method in brief: as §1

[20] = test system: LB771-HNC (Head and Neck Carcinoma); experiment: as above
Method in brief: as §1

[21] = test system: MHH-PREB-1 (B-Cell Non-Hodgkin's Lymphoma); experiment: as above
Method in brief: as §1

[22] = test system: NCI-H747 (Colorectal Carcinoma); experiment: as above
Method in brief: as §1

[23] = test system: OVCAR-8 (Ovarian Carcinoma); experiment: as above
Method in brief: as §1

[24] = test system: SW626 (Colorectal Carcinoma); experiment: as above
Method in brief: as §1

[25] = test system: TE-4 (Esophageal Squamous Cell Carcinoma); experiment: as above
Method in brief: as §1

[26] = test system: UMC-11 (Other Solid Carcinomas); experiment: as above
Method in brief: as §1
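Throughout, for Bliss excess, mean over the matrix: after 72 h of two-drug dosing.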

Structure (SMILES)	Bliss excess [1]	Bliss excess [2]	Bliss excess (COLO-829 (Melanoma) [3])	Bliss excess [4]	Bliss excess [5]	Bliss excess [6]	Bliss excess [7]	Bliss excess [8]	Bliss excess [9]	Bliss excess [10]	Bliss excess [11]	Bliss excess [12]	Bliss excess [13]	combination Emax [14]	combination Emax [15]	combination Emax (COLO-829 (Melanoma) [16])	combination Emax [17]	combination Emax [18]	combination Emax [19]	combination Emax [20]	combination Emax [21]	combination Emax [22]	combination Emax [23]	combination Emax [24]	combination Emax [25]	combination Emax [26]
C[C@@H](c1ccc2nccn2c1)n1nnc2ncc(-c3cnn(C)c3)nc21 [Savolitinib] + CN(CC[C@H](CSC1=CC=CC=C1)NC2=C(C=C(C=C2)S(=O)(=O)NC(=O)C3=CC=C(C=C3)N4CCC(CC4)[C@H](C5=CC=CC=C5C6=CC=C(C=C6)Cl)O)S(=O)(=O)C(F)(F)F)CCO [AZD4320] (first compound max 1 µM, 7x7, partner max 1 µM)	-0.0957	-0.0375	-0.0397	-0.0203	-0.0299	-0.0588	-0.042	-0.0481	-0.0808	-0.0373	-0.108	-0.0244	0.0211	0.172	0.207	0.278	0.916	0.907	0.174	0.154	0.139	0.208	0.0738	0.582	0.145	0.401
CC(=O)c1c(C)c2cnc(Nc3ccc(N4CCNCC4)cn3)nc2n(C2CCCC2)c1=O [Palbociclib] + CN(CC[C@H](CSC1=CC=CC=C1)NC2=C(C=C(C=C2)S(=O)(=O)NC(=O)C3=CC=C(C=C3)N4CCC(CC4)[C@H](C5=CC=CC=C5C6=CC=C(C=C6)Cl)O)S(=O)(=O)C(F)(F)F)CCO [AZD4320] (first compound max 10 µM, 7x7, partner max 1 µM)	-0.124	-0.123	-0.117	-0.0553	-0.0645	-0.0667	-0.0584	-0.041	-0.0425	-0.0261	-0.0921	0.001	0.0057	0.198	0.479	0.33	0.982	0.98	0.41	0.206	0.492	0.555	0.173	0.662	0.341	0.631
COc1nnc2ccc(N3CCC(c4ccc(OCCN5CCN(C)C(=O)[C@H]5C)cc4)CC3)nn12 [AZD5153] + CN(CC[C@H](CSC1=CC=CC=C1)NC2=C(C=C(C=C2)S(=O)(=O)NC(=O)C3=CC=C(C=C3)N4CCC(CC4)[C@H](C5=CC=CC=C5C6=CC=C(C=C6)Cl)O)S(=O)(=O)C(F)(F)F)CCO [AZD4320] (first compound max 1 µM, 7x7, partner max 1 µM)	0.034	0.0267	-0.0466	-0.0023	-0.159	0.0046	0.0273	0.0343	-0.0055	0.0081	0.0477	0.0449	0.0086	0.606	0.843	0.143	0.994	1	0.259	0.524	0.47	0.728	0.733	0.777	0.336	0.848
